Data as given in patent US12583826B2, “[(1,5-diphenyl-1H-1,2,4-triazol-3-yl)oxy]acetic acid derivatives and salts thereof, crop protection compositions comprising them, methods for producing them and use thereof as safeners” (Bayer Aktiengesellschaft, priority 2019, dated 2026).

Tests used:
[1] = system: summer wheat (TRZAS; cv. Triso); test: Absolute action: reduction of damage by mesosulfuron-methyl on summer wheat, greenhouse post-emergence; format: in vivo; conditions: for Absolute reduction in herbicide damage (damage without safener minus damage with safener): mesosulfuron-methyl 20 g/ha; for Herbicide damage with compound of the formula (I): then mesosulfuron-methyl 20 g/ha, visual 0-100% scale, 14-21 days after application
Method: (§1) 2.1 Absolute Action of Selected Compounds of the Invention Using the Example of Reduction of Damage by Mesosulfuron-Methyl on Summer Wheat (TRZAS) The seeds of the crop plants to be treated are laid out in sandy loam in wood fiber or plastic pots (diameter ˜4 cm), covered with soil and grow in a greenhouse under good conditions for germination and growth. The trial plants were treated at the early leaf stage (BBCH10—BBCH12). In the course of this, the inventive compounds of the general formula (I) formulated in the form of wettable powders (WP) were sprayed onto the above-ground parts of the plants as an aqueous suspension with a water application rate corresponding to 800 l/ha with addition of wetting agent (e.g. 0.2% agrotin) in the specified dose. This was followed by the application of the herbicide. For this purpose, mesosulfuron-methyl, formulated in the form of water-dispersible granules (WG), was sprayed onto the above-ground parts of the plants in the form of an aqueous dispersion with a water application rate corresponding to 800 l/ha with addition of wetting agent (e.g. 0.2% agrotin) in a dose of 20 g/ha. The dose of the herbicide was chosen here such that it causes visually apparent damage (min. 30%, max. 75%) compared to untreated crop plants at the evaluation time on a control group of crop plants without safener treatment that were included in the same trial. After application, the plants were cultivated under good growth conditions in a greenhouse. The damage was visually assessed 14-21 days after application. The damage effect was assessed visually on a scale of 0-100% by comparison with untreated control plants, and averaged over 2-3 repeats per treatment. Examples: • 0%=no noticeable effect compared to the untreated plant • 20%=the treated plant population has 20% damage compared to the untreated control population (e.g. growth height, leaf damage, etc.) • 100%=treated plants completely damaged/killed.

[2] = system: summer barley (HORVS; cv. Montoya); test: Absolute action: reduction of damage by mesosulfuron-methyl on summer barley, greenhouse post-emergence; format: in vivo; conditions: for Absolute reduction in damage (difference): mesosulfuron-methyl 20 g/ha, damage without minus with safener; for Herbicide damage with compound of the formula (I) (%): then mesosulfuron-methyl 20 g/ha, visual 0-100% scale, 14-21 days after application
Method: as §1, with “2.2 Absolute Action” for “2.1 Absolute Action”, “on Summer Barley (HORVS) The seeds” for “on Summer Wheat (TRZAS) The seeds”, “treated are aid out in” for “treated are laid out in”, “soil and grown in a” for “soil and grow in a”, “leaf stage (BBCE10-BBCH12). In the” for “leaf stage (BBCH10—BBCH12). In the”, “control population (e.g.: growth height,” for “control population (e.g. growth height,”

Structure (SMILES)	Absolute reduction in herbicide damage (damage without safener minus damage with safener) ([1]; safener 125 g a.i./ha)	Herbicide damage with compound of the formula (I) ([1]; safener 125 g a.i./ha)	Absolute reduction in herbicide damage (damage without safener minus damage with safener) ([1]; safener 500 g a.i./ha)	Herbicide damage with compound of the formula (I) ([1]; safener 500 g a.i./ha)	Absolute reduction in damage (difference) ([2]; safener 125 g a.i./ha)	Herbicide damage with compound of the formula (I) (%) ([2]; safener 125 g a.i./ha)	Absolute reduction in damage (difference) ([2]; safener 500 g a.i./ha)	Herbicide damage with compound of the formula (I) (%) ([2]; safener 500 g a.i./ha)	Absolute reduction in herbicide damage (damage without safener minus damage with safener) ([1]; safener 1000 g/ha)	Herbicide damage with compound of the formula (I) ([1]; safener 1000 g/ha)	Absolute reduction in damage (difference) ([2]; safener 250 g a.i./ha)	Herbicide damage with compound of the formula (I) (%) ([2]; safener 250 g a.i./ha)	Absolute reduction in herbicide damage (damage without safener minus damage with safener) ([1]; safener 250 g/ha)	Herbicide damage with compound of the formula (I) ([1]; safener 250 g/ha)	Absolute reduction in damage (difference) ([2]; safener 1000 g a.i./ha)	Herbicide damage with compound of the formula (I) (%) ([2]; safener 1000 g a.i./ha)
CCOC(=O)COc1nc(-c2ccc(Cl)cc2Cl)n(-c2ccc(F)cc2F)n1 [I.44-38]	53%	10%	60%	3%	43%	17%	50%	10%								
COC(=O)COc1nc(-c2ccc(Cl)cc2Cl)n(-c2ccc(Cl)cc2F)n1 [I.43-49, Methyl {[1-(4-chloro-2-fluorophenyl)-5-(2,4-dichlorophenyl)-1H-1,2,4-triazol-3-yl]oxy}acetate]	36%	27%	40%	23%	30%	33%	33%	30%								
COC(=O)COc1nc(-c2ccc(Cl)cc2F)n(-c2ccc(Cl)cc2F)n1 [I.46-49]	43%	10%			40%	20%	43%	17%								
CCOC(=O)COc1nc(-c2cc(F)cc(F)c2)n(-c2ccc(F)cc2)n1 [I.53-4]									20%	23%	27%	33%				
CCOC(=O)COc1nc(-c2ccc(Cl)cc2Cl)n(-c2ccc(Cl)cc2F)n1 [I.44-49]	43%	10%	46%	7%	30%	30%										
COC(=O)COc1nc(-c2ccc(Cl)cc2F)n(-c2ccc(Cl)cc2Cl)n1 [I.46-32]	43%	10%	46%	7%	27%	33%	33%	27%								
CCOC(=O)COc1nc(-c2ccc(F)cc2F)n(-c2ccc(Cl)cc2)n1 [I.41-7]													23%	20%	40%	20%
O=C(O)COc1nc(-c2ccccc2F)n(-c2ccc(F)cc2F)n1 [I.6-38]	50%	17%			53%	20%										
O=C(O)COc1nc(-c2ccccc2)n(-c2ccc(Cl)cc2)n1 [I.3-7]									33%	10%	20%	40%	23%	20%		
O=C(O)COc1nc(-c2ccc(Cl)cc2Cl)n(-c2ccc(F)cc2F)n1 [I.45-38]	33%	30%	43%	20%	30%	30%	40%	20%								
O=C(O)COc1nc(-c2ccc(F)cc2)n(-c2ccc(Cl)cc2)n1 [I.12-7]													23%	20%	20%	40%
COC(=O)COc1nc(-c2ccccc2F)n(-c2ccc(Cl)cc2F)n1 [I.4-49]	40%	17%			44%	13%	47%	10%								
CCOC(=O)COc1nc(-c2ccc(Cl)cc2F)n(-c2ccc(Cl)cc2Cl)n1 [I.47-32]	34%	23%	44%	13%			47%	10%								
CCOC(=O)COc1nc(-c2cc(F)cc(F)c2)n(-c2ccc(F)cc2F)n1 [I.53-38]									20%	23%	30%	30%			40%	20%
COC(=O)COc1nc(-c2ccccc2F)n(-c2ccc(Cl)cc2Cl)n1 [I.4-32]	34%	23%	47%	10%	20%	37%	44%	13%								
O=C(O)COc1nc(-c2cc(F)cc(F)c2)n(-c2ccc(F)cc2)n1 [I.54-4]											23%	37%	23%	20%		
CCOC(=O)COc1nc(-c2ccc(Cl)cc2Cl)n(-c2ccc(Cl)cc2Cl)n1 [I.44-32]	53%	10%	56%	7%	33%	27%	47%	13%								
